For data set [1], the system named is HBV replication. As to conditions: Figures 1 and 2, earlier inhibitors; cited from earlier work.
Data set [2] relates to HepDES19 cells. Further details: method as in PMID 28450058, PMID 28633989, PMID 29565562, PMID 30768944. To be noted: Figures 1 and 2, earlier inhibitors; cited from earlier work.
Data set [3] can be described thus: Parallel artificial membrane permeability assay. The format is in vitro ADME. To be noted: PAMPA; for Papp interpretation (high/low permeability category) at 2 h, 200 µM: pH 7.4, pH 7.4; for Papp at 2 h, 200 µM: pH 7.4, pH 7.4, 200 μM, room temperature. How it is done: Apparent passive permeability (Papp) was assessed at pH 7.4 using a 96-well donor/acceptor cassette (Sigma Aldrich, Burlington, MA, USA), which mimics the apical and basolateral sides of the small intestine epithelium, as we have described previously. Briefly, an artificial membrane composed of 1% w/v lethicin/dodecane was added to the poly (vinylidene fluoride) (PVDF) membrane filter. Once dry, compounds (200 μM) were diluted in buffer at pH 7.4 and added to the donor side of the membrane, and the same pH buffer was added to the acceptor side. The cassette was assembled and incubated at room temperature with shaking at 250 rpm for 2 h, after which 100 μL of the acceptor well was retrieved and the experimental compound absorbance was read on a plate reader between 200 and 600 nm. Compound Papps (cm/s) values were determined by normalizing to the compound absorbance at equilibrium, incubation time, and membrane porosity Two or more replicate assays were conducted on different days.
For orientation: PAMPA measures passive passage across an artificial lipid membrane.

Data set [4] concerns HBV replication. Description: qPCR HBV replication inhibition assay in HepDES19 cells. The format is cell-based, Hepatitis B virus (HBV) genotype D. To be noted: Hepatitis B virus, 72 h, (+) DNA qPCR, read-out: EC50. On the procedure: (§1) HepDES19 cells were incubated on collagen-coated plates at 37 °C with 5% CO2 and saturating humidity in Dulbecco’s modified Eagle’s medium (DMEM/F12) (Cytiva Life Sciences, Marlborough, MA, USA) supplemented with 10% fetal bovine serum (FBS), penicillin (100 IU/mL), and streptomycin (100 µg/mL). HepDES19 cells are HepG2 cells that carry a stably transfected HBV genotype D genome under the control of a tetracycline repressible promoter. Cells were maintained in the presence of 1 µg/mL tetracycline to repress the expression of the stably integrated HBV genome, and HBV replication was induced by the withdrawal of tetracycline from the culture medium.
HBV replication inhibition was measured in HepDES19 cells induced to replicate HBV by the removal of tetracycline using a strand-preferential quantitative PCR assay as previously described. Cells were seeded at 4 × 10^4 cells/well in 96-well plates for 48 h. Serially diluted compound was then added to cells at a final concentration of 1% DMSO for 72 h, after which the cells were lysed and qPCR was performed as described in Li et al.. EC50 values were calculated from the (+) DNA data with GraphPad Prism using the four-parameter log (inhibitor) versus response algorithm with the bottom value set to zero. Three or more replicate assays were performed on different days.
A general note: Real-time PCR tracks product formation cycle by cycle.

The nature of data set [5]: Solubility limit assay (turbidity, DMEM-F12 + 10% FBS). It counts as physicochemical. To be noted: DMEM-F12 without phenol red with 10% FBS, plasma or biological fluid, kinetic from dmso stock; pH 7.4, DMEM-F12 with 10% FBS, 1% DMSO, upper limit 200 µM. On the procedure:
Compound solubility limits were tested in DMEM-F12 without phenol red (Gibco, Grand Island, NY, USA) supplemented with 10% FBS (pH 7.2–7.4) to mimic cell culture experiments, as we have performed previously. Compounds were serially diluted in buffer at pH 7.4 in 384-well, optically clear plates (upper limit 200 µM, DMSO 1%) and read on a plate reader at 620 nm. Compound concentration (µM) was plotted against optical density (OD) and a solubility limit was determined by identifying an inflection point where there was a significant increase in optical density due to increasing turbidity; the concentration of the compound at the inflection point was defined as the solubility limit. Two or more replicate assays were performed on different days for each compound.

The test system of data set [6] is HepDES19 cells. Description: MTS cytotoxicity assay. To be noted: 72 h. It counts as cell-based. How it is done:
as §1
(§2) Cell viability was assessed using the CellTiter 96^TM Aqueous Non-Radioactive Cell Proliferation assay (MTS) (Promega, Madison, WI, USA) as described previously. HepDES19 cells were seeded at 1 × 10^4 cells per well in 96-well, and compound was added after 48 h. Cells incubated with serially diluted compound (1% DMSO) for 72 h. Bac absorbance values were subtracted, and data were converted to percent cell viability. The cytotoxic concentration 50% (CC50) values were calculated with GraphPad Prism by using the four-parameter variable response log (inhibitor) versus response algorithm with the bottom value set to zero. Three or more replicate assays were performed on different days.
On the technique in general: Formazan colour is commonly taken as a measure of viable cells.

A short description of a further data set: MTS cytotoxicity assay. As to conditions: human, HepDES19 cells. It counts as cell-based. How it is done: as §1, §2

Like-named read-outs stand apart in the source and are kept apart here.

A word on the EC50: it is the midpoint of the concentration-response curve. The term CC50 denotes the concentration giving 50% cytotoxicity. `C/C(=N\c1cccc(Br)c1)c1c(C)cc(=O)n(O)c1O` [HPD imine]: the EC50 in the data set with HBV replication [1] is 1.1 µM. Also, the CC50 in the data set on HepDES19 cells [2] is 62.3 µM.
As a reminder, the Papp is the rate of passage across a membrane or cell layer, normalised by area and donor concentration. The term melting point denotes the temperature, or range, at which the solid turns liquid. What is called solubility is how much of the substance goes into solution per volume. With `COC(=O)c1ccc(CON=C(C)c2c(C)cc(=O)n(O)c2O)cc1` [Compound 47, 4′-((((1′-(1,2-Dihydroxy-4-methyl-6-oxo-1,6-dihydropyridin-5-yl)ethylidene)amino)oxy)methyl)methyl benzoate], the melting point was 120 °C (dec.). In addition, in data set [3], the Papp interpretation (high/low permeability category) at 2 h, 200 µM is greater than 1 ×10⁻⁶ cm/s and the apparent permeability coefficient (Papp) at 2 h, 200 µM worked out at 5.52 ×10⁻⁶ cm/s. Moreover, the EC50 in the data set on HBV replication [4] turned out to be 1.1 ± 0.4 µM. The solubility in data set [5] is greater than 200 µM. In addition, the CC50 entry in the data set with HepDES19 cells [6] is recorded as “minimally cytotoxic”. This compound also yielded a cytotoxic concentration (CC50) at 72 h in the data set “MTS cytotoxicity assay” of 100 µM.
`CC(=NOCc1ccc([N+](=O)[O-])cc1)c1c(C)cc(=O)n(O)c1O` [Compound 48, 1,6-Dihydroxy-4-methyl-5-(1-(((4-nitrobenzyl)oxy)imino)ethyl)pyridin-2(1H)-one] displayed a melting point of 105 to 107 °C. Further, in data set [3], the Papp interpretation (high/low permeability category) at 2 h, 200 µM was greater than 1 ×10⁻⁶ cm/s and the Papp at 2 h, 200 µM came out at 5.38 ×10⁻⁶ cm/s. In addition, the EC50 in the data set on HBV replication [4] came out at 1.1 ± 0.2 µM. Moreover, in data set [5], the solubility is greater than 200 µM. Also, in the data set with HepDES19 cells [6], the CC50 result was “minimally cytotoxic”. The compound further displayed a CC50 at 72 h in the data set “MTS cytotoxicity assay” of 99.6 ± 0.6 µM.
On to `O=C(Nc1ccc2c(c1)C(=O)N(O)C(=O)C2C(=O)NCc1ccc(F)cc1)c1ccccc1` (stereo not drawn) [HID], for which the EC50 in the data set on HBV replication [1] was 1.4 µM. In addition, the CC50 with HepDES19 cells [2] is 99 µM.
Consider `CC(=NOC(CNC(=O)c1ccc2ccccc2n1)c1cc(F)cc(F)c1)c1c(C)cc(=O)n(O)c1O` (stereo not drawn) [Compound 49, N-(2-(3,5-Difluorophenyl)-2-(((1-(1,2-dihydroxy-4-methyl-6-oxo-1,6-dihydropyridin-3-yl)ethylidene)amino)oxy)ethyl)quinoline-2-carboxamide], for which the melting point was 108 to 110 °C (dec.). In data set [3], the Papp interpretation (high/low permeability category) at 2 h, 200 µM is greater than 1 ×10⁻⁶ cm/s and the Papp at 2 h, 200 µM is 6.71 ×10⁻⁶ cm/s. Further, the EC50 with HBV replication [4] was determined as 3.5 ± 0.8 µM. In addition, the solubility in data set [5] is greater than 200 µM. In the data set “MTS cytotoxicity assay”, this compound had a half-maximal cytotoxic concentration (CC50) at 72 h of 99.9 ± 0.2 µM.
Consider `CC(=NOC(CNC(=O)c1ccco1)c1cc(F)cc(F)c1)c1c(C)cc(=O)n(O)c1O` (stereo not drawn) [Compound 37, N-(2-(3,5-Difluorophenyl)-2-(((1-(1,2-dihydroxy-4-methyl-6-oxo-1,6-dihydropyridin-3-yl)ethylidene)amino)oxy)ethyl)furan-2-carboxamide], for which the melting point is 118 to 120 °C (dec.). Besides, in data set [3], the Papp interpretation (high/low permeability category) at 2 h, 200 µM is greater than 1 ×10⁻⁶ cm/s and the apparent permeability (Papp) at 2 h, 200 µM was found to be 4.96 ×10⁻⁶ cm/s. In addition, in the data set with HBV replication [4], the EC50 worked out at 4.7 ± 3 µM. Besides, the solubility in data set [5] is 175 µM. The compound also returned a CC50 at 72 h in the data set “MTS cytotoxicity assay” of 100 µM.
As to `COc1ccc(CON=C(C)c2c(C)cc(=O)n(O)c2O)cc1` [A24], the EC50 in the data set on HBV replication [1] was 0.29 µM. The CC50 with HepDES19 cells [2] was 102 µM.
Regarding `CC(=NOCc1ccc(O)cc1)c1c(C)cc(=O)n(O)c1O` [Compound 39, 1,6-Dihydroxy-5-(1-(((4-hydroxybenzyl)oxy)imino)ethyl)-4-methylpyridin-2(1H)-one], the melting point was 98 to 100 °C (dec.). Also, in data set [3], the Papp interpretation (high/low permeability category) at 2 h, 200 µM is greater than 1 ×10⁻⁶ cm/s and the Papp at 2 h, 200 µM was 5.21 ×10⁻⁶ cm/s. In the data set on HBV replication [4], the EC50 was determined as 5.2 ± 0.9 µM. Moreover, in data set [5], the solubility is greater than 200 µM. Besides, the midpoint of cytotoxicity in the data set “MTS cytotoxicity assay”, the CC50 at 72 h, lay at 91.1 ± 14.3 µM.
Take `COc1cccc(CON=C(C)c2c(C)cc(=O)n(O)c2O)c1` [Compound 35, 1,6-Dihydroxy-5-(1-(((3-methoxybenzyl)oxy)imino)ethyl)-4-methylpyridin-2(1H)-one]: the melting point is 120 to 122 °C (dec.). Besides, in data set [3], the Papp interpretation (high/low permeability category) at 2 h, 200 µM was greater than 1 ×10⁻⁶ cm/s and the Papp at 2 h, 200 µM was 6.19 ×10⁻⁶ cm/s. Besides, the EC50 in the data set with HBV replication [4] came out at 1.9 ± 1.2 µM. The solubility in data set [5] was 117 µM. The compound also showed a CC50 at 72 h in the data set “MTS cytotoxicity assay” of 90 ± 14.1 µM.
`CSc1ccc(CON=C(C)c2c(C)cc(=O)n(O)c2O)cc1` [Compound 33, 1,6-Dihydroxy-4-methyl-5-(1-(((4(methylthio)benzyl)oxy)imino)ethyl)pyridin-2(1H)-one]: the melting point was 110 to 115 °C (dec.). In addition, in data set [3], the Papp interpretation (high/low permeability category) at 2 h, 200 µM is greater than 1 ×10⁻⁶ cm/s and the apparent permeability (Papp) at 2 h, 200 µM came to 4.35 ×10⁻⁶ cm/s. For the same compound, the EC50 with HBV replication [4] is 1.4 ± 0.7 µM. Besides, in data set [5], the solubility was greater than 200 µM. The CC50 at 72 h in the data set “MTS cytotoxicity assay” was 100 µM.
As for `NCc1ccc(-c2ccc(Cc3cc(=O)n(O)c4ncccc34)cc2)cc1` [HNO], in the data set on HBV replication [1], the EC50 is 3.4 µM. In the data set with HepDES19 cells [2], the CC50 was 7.1 µM.
As to `C#CCCCON=C(C)c1c(C)cc(=O)n(O)c1O` [Compound 40, 1,6-Dihydroxy-4-methyl-5-(1-((pent-4-yn-1-yloxy)imino)ethyl)pyridin-2(1H)-one], the melting point was 93 to 95 °C (dec.). Besides, in data set [3], the Papp interpretation (high/low permeability category) at 2 h, 200 µM is greater than 1 ×10⁻⁶ cm/s and the Papp at 2 h, 200 µM amounted to 3.36 ×10⁻⁶ cm/s. Besides, the concentration for a half-maximal effect (EC50) with HBV replication [4] was found to be 2.5 ± 0.6 µM. For the same compound, the solubility in data set [5] was greater than 200 µM. Moreover, in the data set “MTS cytotoxicity assay”, the CC50 at 72 h came to 53.6 ± 31.4 µM.
Consider `COC(=O)c1c2c(cc(O)c(=O)c1O)COC2=O` [a-HT], for which the EC50 in the data set on HBV replication [1] was 0.5 µM. The CC50 in the data set on HepDES19 cells [2] is greater than 77 µM.

(Values after article PMC11206691, “N-Hydroxypiridinedione: A Privileged Heterocycle for Targeting the HBV RNase H” (Molecules, 2024).)
